Measured values from patent US9682940B2, “Indazole derivatives useful as CB-1 inverse agonists” (Janssen Pharmaceutica NV, priority 2015, dated 2017).
Like-named read-outs stand apart in the source and are kept apart here.

Experiments:
[1] = molecular target: Human CB1R (Cannabanoid receptor 1) (Homo sapiens (Human), UniProt P21554); assay: CB-1 in vitro cAMP (HTRF) assay in HEK-293 cells; assay type: cell-based; settings: HEK-293 cells stably transfected with human CB1R, 250 nM Forskolin, mean where tested more than once, read-out: CB-1 (HEK_cAMP) EC50
How it was run: (§1)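 HEK-293 cells stably expressing human CB1 or CB2 plated overnight, then tested in HBSS/5 mM HEPES/0.1% BSA with 0.5 mM IBMX and forskolin (1.5 μM working dilution). Intracellular cAMP quantified by competitive HTRF immunoassay (d2-cAMP, cryptate anti-cAMP) against a cAMP standard curve; compounds as 1/3 serial dilutions from 10 mM DMSO stocks.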

[2] = molecular target: Human CB2R (Cannabanoid receptor 2) (Homo sapiens (Human), UniProt P34972); assay: CB-2 in vitro cAMP (HTRF) assay in HEK-293 cells; assay type: cell-based; settings: HEK-293 cells stably transfected with human CB2R, 250 nM Forskolin, mean where tested more than once, read-out: CB-2 (HEK_cAMP) EC50
How it was run: as §1

Mouse Fast PK/BBB [3] = assay type: in vivo, Male C57bl/6j mice; settings: male, C57bl/6j, oral, Dose 30 mg/kg
Experimental: Male C57bl/6j mice were ordered from Charles River at 22-25 g and housed 3 per cage. They were fed standard chow (Purina 5001).
Male C57bl/6j mice were dosed with test compounds at 20 mg/kg or 30 mg/kg. Plasma was collected via retro-orbital bleeding at 1 hr and 4 hrs after dosing. Whole brain without cerebellum was collected at 4 hrs after dosing. Wet brain weight was recorded before freezing. Brains were homogenized in saline and sent for analysis for determination of concentration of test compound.

Mouse Fast PK/BBB [4] = assay type: in vivo, Male C57bl/6j mice; settings: male, C57bl/6j, brain, oral, Dose 30 mg/kg, read-out: BRAIN Mean Conc. (ng/mL) ± Std. Dev

Chain of Human CB2R (Cannabanoid receptor 2) (P34972 whole entry): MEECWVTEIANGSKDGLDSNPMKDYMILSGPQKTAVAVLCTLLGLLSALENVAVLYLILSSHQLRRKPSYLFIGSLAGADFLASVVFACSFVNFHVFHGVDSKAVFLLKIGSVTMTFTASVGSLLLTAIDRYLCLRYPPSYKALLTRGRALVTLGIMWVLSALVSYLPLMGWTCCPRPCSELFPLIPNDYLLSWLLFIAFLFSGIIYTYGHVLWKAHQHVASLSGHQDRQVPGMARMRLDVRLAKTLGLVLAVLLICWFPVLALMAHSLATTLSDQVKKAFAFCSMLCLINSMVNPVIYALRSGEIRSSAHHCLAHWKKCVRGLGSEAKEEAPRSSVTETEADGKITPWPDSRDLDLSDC
Chain of Human CB1R (Cannabanoid receptor 1) (P21554 whole entry): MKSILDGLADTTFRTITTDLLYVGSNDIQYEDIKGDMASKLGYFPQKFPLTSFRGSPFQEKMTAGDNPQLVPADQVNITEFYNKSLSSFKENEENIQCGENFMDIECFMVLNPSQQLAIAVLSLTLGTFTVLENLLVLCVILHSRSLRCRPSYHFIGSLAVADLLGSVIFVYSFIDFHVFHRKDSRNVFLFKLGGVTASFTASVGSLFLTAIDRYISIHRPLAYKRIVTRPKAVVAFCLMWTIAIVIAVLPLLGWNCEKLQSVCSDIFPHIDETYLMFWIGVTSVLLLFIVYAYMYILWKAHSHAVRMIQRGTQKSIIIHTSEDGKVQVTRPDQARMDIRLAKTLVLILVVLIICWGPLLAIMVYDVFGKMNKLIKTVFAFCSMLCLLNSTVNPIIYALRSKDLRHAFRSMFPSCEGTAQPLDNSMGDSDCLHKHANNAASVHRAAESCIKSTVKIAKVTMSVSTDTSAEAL

NC(=O)c1cc(S(=O)(=O)N2CCC(c3c4cc(C(c5ccc(Cl)cc5)c5ccc(Cl)cc5)ccc4nn3C3CC3)CC2)ccc1Cl [Compound 169, 5-(4-(5-(bis(4-chlorophenyl)methyl)-2-cyclopropyl-2H-indazol-3-yl)piperidin-1-ylsulfonyl)-2-chlorobenzamide]
EC50 [1]: 17 nM | EC50 [2]: > 10000 nM | concentration at 4 hr (Mouse Fast PK/BBB [3]; brain, read-out: BRAIN Mean Conc. (ng/mL) ± Std. Dev): 54.8 ± 14.5 ng/mL | concentration at 1 hr (Mouse Fast PK/BBB [3]; plasma, Time 1 hr, read-out: PLASMA Mean Conc. (ng/mL) ± Std. Dev): 2460 ± 427 ng/mL | concentration at 4 hr (Mouse Fast PK/BBB [3]; plasma, read-out: PLASMA Mean Conc. (ng/mL) ± Std. Dev): 2310 ± 554 ng/mL | concentration at 1 hr (Mouse Fast PK/BBB [4]): 29.4 ± 3.9 ng/mL
